Assays:
Assay in all cases: relative viability (nuclei count vs DMSO), 5 days (fraction); higher = more cells survive
XMD14-99 + Lapatinib = compound: CN1CCN(CC1)C2=CC(=C(C=C2)NC3=NC(=C(S3)C(=O)C4=C(C=CC=C4Cl)Cl)N)OC [XMD14-99] + CS(=O)(=O)CCNCc1ccc(-c2ccc3ncnc(Nc4ccc(OCc5cccc(F)c5)c(Cl)c4)c3c2)o1 [Lapatinib] (partner 2 µM)
Outline: (§1)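 Medians of duplicate plates are given as relative viability. That measure is the nuclei count in treated wells divided by the count in vehicle wells. Counts were taken on 4× images of lung cancer cell lines in 1536-well plates, 5 days after pin-tool dosing the day after seeding with one drug alone or a fixed anchor-drug dose plus five library-drug doses (not always all listed) in √10 steps.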

AZD1208 + Tozasertib = compound: N[C@@H]1CCCN(c2c(/C=C3\SC(=O)NC3=O)cccc2-c2ccccc2)C1 [AZD1208] + Cc1cc(Nc2cc(N3CCN(C)CC3)nc(Sc3ccc(NC(=O)C4CC4)cc3)n2)n[nH]1 [Tozasertib] (partner 0.1 µM)
Outline: as §1

AZD1208 + Alpelisib = compound: N[C@@H]1CCCN(c2c(/C=C3\SC(=O)NC3=O)cccc2-c2ccccc2)C1 [AZD1208] + Cc1nc(NC(=O)N2CCC[C@H]2C(N)=O)sc1-c1ccnc(C(C)(C)C(F)(F)F)c1 [Alpelisib] (partner 2 µM)
Outline: as §1

AZD1208 + Olaparib = compound: N[C@@H]1CCCN(c2c(/C=C3\SC(=O)NC3=O)cccc2-c2ccccc2)C1 [AZD1208] + O=C(c1cc(Cc2n[nH]c(=O)c3ccccc23)ccc1F)N1CCN(C(=O)C2CC2)CC1 [Olaparib] (partner 8 µM)
Outline: as §1

Cell Line | relative viability (XMD14-99 + Lapatinib; first compound 0.08 µM) | relative viability (XMD14-99 + Lapatinib; first compound 0.8 µM) | relative viability (XMD14-99 + Lapatinib; first compound 2.53 µM) | relative viability (XMD14-99 + Lapatinib; first compound 8 µM) | relative viability (AZD1208 + Tozasertib; first compound 0.08 µM) | relative viability (AZD1208 + Tozasertib; first compound 0.253 µM) | relative viability (AZD1208 + Tozasertib; first compound 0.8 µM) | relative viability (AZD1208 + Tozasertib; first compound 2.53 µM) | relative viability (AZD1208 + Tozasertib; first compound 8 µM) | relative viability (AZD1208 + Alpelisib; first compound 0.08 µM) | relative viability (AZD1208 + Alpelisib; first compound 0.253 µM) | relative viability (AZD1208 + Alpelisib; first compound 0.8 µM) | relative viability (AZD1208 + Alpelisib; first compound 2.53 µM) | relative viability (AZD1208 + Alpelisib; first compound 8 µM) | relative viability (AZD1208 + Olaparib; first compound 0.08 µM) | relative viability (AZD1208 + Olaparib; first compound 0.253 µM) | relative viability (AZD1208 + Olaparib; first compound 0.8 µM) | relative viability (AZD1208 + Olaparib; first compound 2.53 µM) | relative viability (AZD1208 + Olaparib; first compound 8 µM)
LXF-289 | 0.923 | 0.885 | 0.866 | 0.704 | 0.178 | 0.158 | 0.16 | 0.131 | 0.123 | 1.05 | 1.13 | 1.01 | 1.03 | 1.03 | 1.03 | 1.23 | 1.06 | 1.03 | 1.01
NCI-H23 | 1.08 | 1.29 | 1.14 | 0.881 | 0.4 | 0.365 | 0.336 | 0.376 | 0.272 | 0.658 | 0.58 | 0.493 | 0.564 | 0.561 | 0.321 | 0.324 | 0.292 | 0.298 | 0.279
NCI-H322M | 0.573 | 0.583 | 0.609 | 0.598 | 0.429 | 0.492 | 0.463 | 0.463 | 0.439 | 0.718 | 0.718 | 0.75 | 0.73 | 0.821 | 0.762 | 0.799 |  | 0.726 | 0.834
NCI-H358 | 0.45 | 0.45 | 0.317 | 0.231 | 0.109 | 0.0897 | 0.104 | 0.101 | 0.091 | 0.64 | 0.709 | 0.546 | 0.592 | 0.569 | 0.636 | 0.515 | 0.501 | 0.544 | 0.525
NCI-H460 | 0.863 | 0.977 | 0.927 | 0.679 | 0.461 | 0.473 | 0.474 | 0.347 | 0.389 | 0.502 | 0.408 | 0.458 | 0.46 | 0.409 | 0.474 | 0.43 | 0.407 | 0.431 | 0.443
NCI-H520 | 0.845 | 0.88 | 0.834 | 0.652 | 0.432 | 0.37 | 0.422 | 0.355 | 0.331 | 0.848 | 0.805 | 0.641 | 0.896 | 0.802 | 0.357 | 0.278 | 0.271 | 0.287 | 0.252
NCI-H596 | 1.12 | 1.05 | 1.17 | 0.938 | 0.896 | 0.925 | 0.77 | 0.733 | 0.592 | 0.387 | 0.573 | 0.351 | 0.376 | 0.353 | 0.706 | 0.563 | 0.717 | 0.632 | 0.564
NCI-H647 | 1.11 | 1.03 | 1.13 | 0.842 | 0.239 | 0.345 | 0.175 | 0.295 | 0.163 | 1.03 | 1.28 | 1.06 | 1.06 | 1.01 | 0.504 | 0.587 | 0.383 | 0.531 | 0.285
NCI-H650 | 0.92 | 0.956 | 0.663 | 0.774 | 0.732 | 0.725 | 0.67 | 0.684 | 0.66 | 1.11 | 1.15 | 1.07 | 0.967 | 0.823 | 0.401 | 0.392 | 0.388 | 0.359 | 0.379
NCI-H661 | 0.391 | 0.521 | 0.425 | 0.402 | 0.351 | 0.347 | 0.361 | 0.358 | 0.355 | 0.706 | 0.815 | 0.529 | 0.724 | 0.665 | 0.762 | 0.754 | 0.728 | 0.745 | 0.758
NCI-H727 | 0.791 | 0.935 | 0.721 | 0.484 | 0.673 | 0.636 | 0.568 | 0.566 | 0.585 | 0.542 | 0.543 | 0.496 | 0.497 | 0.387 | 0.793 | 0.556 | 0.917 | 0.743 | 0.734
NCI-H838 | 0.947 | 0.993 | 0.851 | 0.69 | 0.277 | 0.261 | 0.267 | 0.268 | 0.264 | 0.962 | 1.13 | 0.887 | 0.959 | 0.882 | 0.789 | 0.796 | 0.72 | 0.759 | 0.753
NCI-H1355 | 1.03 | 0.958 | 1.01 | 0.61 | 0.539 | 0.474 | 0.407 | 0.389 | 0.308 | 0.826 | 0.832 | 0.704 | 0.771 | 0.64 | 0.717 | 0.689 | 0.672 | 0.68 | 0.657
NCI-H1395 | 0.985 | 0.958 | 1.04 | 0.809 | 0.803 | 0.68 | 0.677 | 0.629 | 0.571 | 0.925 | 1.07 | 1.1 | 1.24 | 0.851 | 0.479 | 0.432 | 0.406 | 0.421 | 0.381
NCI-H1437 | 0.804 | 0.745 | 0.573 | 0.458 | 0.429 | 0.378 | 0.335 | 0.353 | 0.351 | 0.927 | 0.981 | 0.796 | 0.827 | 0.504 | 0.651 | 0.648 | 0.606 | 0.673 | 0.676
NCI-H1651 | 0.779 | 0.823 | 0.79 | 0.705 | 0.698 | 0.661 | 0.652 | 0.529 | 0.408 | 0.848 | 0.921 | 0.785 | 0.732 | 0.677 | 0.198 | 0.186 |  | 0.172 | 0.172
NCI-H1666 | 0.741 | 0.582 | 0.721 | 0.399 | 0.535 | 0.6 | 0.513 | 0.644 | 0.58 | 0.815 | 0.821 | 0.577 | 0.765 | 0.894 | 0.762 | 0.766 | 0.673 | 0.693 | 0.768

— the supplement of paper PMC10307832
